Laboratory results published in patent US20050136043A1, “TGFbeta signaling inhibitors” (Ludwig Institute for Cancer Research, priority 2003, published 2005).
Where two headings read alike, the source gives them in different places.

Experiments:
[1] = test system: phosphorylation of endogenous Smad2 by TβR-I in Mv1Lu cells; assay: TGFβ1-dependent phosphorylation of endogenous Smad2 in Mv1Lu cells (pS2 immunoblot); format: cell-based; conditions: for Effect of low molecular weight inhibitors on TGFβ1-dependent phosphorylation of Smad2: Mv1Lu cells, TGFβ1 10 ng/ml 30 min, FIG. 3A
GST-TβR-I [2] = target: T1, GST-TβR-I (Homo sapiens, UniProt P36897, T204D); assay: In vitro kinase assay: phosphorylation of GST-Smad3deltaMH1 by GST-TβR-I; format: biochemical
T1 construct: the complete cytoplasmic part (amino acid residues 148-503) of constitutively active TβR-I (T204D) FLAG-tagged at the C-terminus; made in house; host or cells: E. coli
T1 sequence (P36897 148-503 T204D): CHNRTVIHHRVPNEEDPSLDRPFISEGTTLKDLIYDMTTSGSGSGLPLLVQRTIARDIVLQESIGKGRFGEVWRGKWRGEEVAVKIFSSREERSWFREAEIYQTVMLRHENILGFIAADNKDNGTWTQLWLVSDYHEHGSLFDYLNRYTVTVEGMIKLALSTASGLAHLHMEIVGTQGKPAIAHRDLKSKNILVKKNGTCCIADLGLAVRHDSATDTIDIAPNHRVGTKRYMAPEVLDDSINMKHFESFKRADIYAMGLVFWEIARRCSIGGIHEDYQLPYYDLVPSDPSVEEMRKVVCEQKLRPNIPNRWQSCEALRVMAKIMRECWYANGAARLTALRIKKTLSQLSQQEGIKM

p38 MAP = p38 MAP (Homo sapiens, UniProt Q16539); conditions: Calbiochem product data sheets; read-out: IC50 p38 MAP in vitro; cited from earlier work
[3] = target: T2, constitutively active TβR-I (Homo sapiens, UniProt P36897, T204D); assay: In vitro kinase assay with immunoprecipitated constitutively active TβR-I expressed in Mv1Lu cells; format: biochemical; conditions: immunoprecipitated from Mv1Lu cells, data not shown
T2 construct: made in house; host or cells: Mv1Lu cells (expressed, immunoprecipitated)
T2 sequence (P36897 34-503 T204D): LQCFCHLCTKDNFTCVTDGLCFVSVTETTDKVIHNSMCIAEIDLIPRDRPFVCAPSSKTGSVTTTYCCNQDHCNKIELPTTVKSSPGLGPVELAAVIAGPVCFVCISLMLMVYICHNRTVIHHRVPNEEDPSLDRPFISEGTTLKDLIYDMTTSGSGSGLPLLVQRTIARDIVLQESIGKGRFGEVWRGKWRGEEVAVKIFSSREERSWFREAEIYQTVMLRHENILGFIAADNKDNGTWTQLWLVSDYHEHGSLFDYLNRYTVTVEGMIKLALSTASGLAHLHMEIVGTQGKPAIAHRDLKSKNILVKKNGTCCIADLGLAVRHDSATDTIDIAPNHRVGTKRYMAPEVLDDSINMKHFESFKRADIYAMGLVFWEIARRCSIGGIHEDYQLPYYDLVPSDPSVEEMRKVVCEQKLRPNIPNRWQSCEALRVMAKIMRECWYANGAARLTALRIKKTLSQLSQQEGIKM

GST-TβR-I [4] = target: T1, GST-TβR-I; assay: GST-TβR-I autophosphorylation assay; format: biochemical; conditions: peptides at 1 and 10 μM, FIG. 4A
Protocol: In vitro kinase assay: GST-TβRI activity was assayed in vitro using the known TβR-I substrates GST-Smad3deltaMH1, GST-Smad2; GST-Smad1 was used as a control for specificity. The reaction mixture (20 μl) contained 20 mM HEPES (pH 7.4), 10 mM MgCl2, 2 mM MnCl2, 1 mM dithiothreitol (DTT), 5 μM ATP plus 0.5 μCi [γ^32P]ATP (Redivue, Amersham Biosciences), and inhibitors at different concentrations. The reaction was initiated by an addition of 0.02 μg purified GST-TβRI, followed by incubation at 22° C. for 20 min. Reaction was terminated by addition of 5 μl of 5× SDS-sample buffer. Samples were subjected to SDS-PAGE followed by analysis in a FujiX2000 phosphorimager. For all in vitro enzyme assays, the percent inhibition was calculated as 100×(1-Ai/A0), where Ai and A0 are levels of GST-Smad phosphorylation in the presence and absence of inhibitors, respectively. […] Phosphorylated GST-Smad3deltaMH1 and autophosphorylated GST-TβRI were analyzed by tryptic phosphopeptide mapping, as described previously.
A GST-TβR-I autophosphorylation assay was performed in the absence or presence of antp-Sm2S (SEQ ID NO:3), antp-Sm2A (SEQ ID NO:2) and antp-Sm5A (SEQ ID NO:4) peptides at concentrations of 1 and 10 μM, as indicated (FIG. 4A).

Mv1Lu cells = assay: Growth inhibition assay, [3H]thymidine incorporation; format: cell-based; conditions: peptide 50 μM, TGFβ1 0.1 ng/ml, 24 hours, FIG. 7
Protocol: Growth inhibition assay: Growth inhibition assay with MV1Lu cells, using evaluation of [^3H]thymidine incorporation, was performed as described earlier. Briefly, cells were preincubated with peptides for 30 min, and then treated or not with TGFβ1 (0.1 ng/ml) for 24 h. During the last two hours of incubation, [^3H]thymidine was added. Radioactivity incorporated into DNA was measured in a scintillation counter. No cytotoxic effects of peptides were observed after 24 h incubation with cells, as evaluated by observation of cells in a microscope.
To explore whether the antp-Sm2A (SEQ ID NO:2) peptide can interfere with the TGFβ-dependent effects on cells, we performed an assay with Mv1Lu cells, which are widely used in studies of TGFβ effects and are potently growth-inhibited by TGFβ [29]. […] [^3H]thymidine was added to cells for last two hours of incubation, and radioactivity incorporated into DNA was measured.

[5] = in vitro kinase assay, 5 μM ATP, read-out: IC50 GST-TβRI in vitro

p38 MAP, sequence (Q16539 whole entry): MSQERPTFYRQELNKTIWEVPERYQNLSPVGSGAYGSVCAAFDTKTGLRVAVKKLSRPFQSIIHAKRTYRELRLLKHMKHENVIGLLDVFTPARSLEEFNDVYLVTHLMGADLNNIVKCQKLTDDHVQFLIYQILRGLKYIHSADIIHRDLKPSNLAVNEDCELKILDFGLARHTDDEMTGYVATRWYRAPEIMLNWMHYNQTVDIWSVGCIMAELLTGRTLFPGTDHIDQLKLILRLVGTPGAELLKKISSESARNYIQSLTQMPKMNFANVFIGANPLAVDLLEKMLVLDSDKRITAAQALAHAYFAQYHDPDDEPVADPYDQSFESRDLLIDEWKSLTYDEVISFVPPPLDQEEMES

Compound: CC1CNCCN1S(=O)(=O)c1cccc2cnccc12.Cl (stereo not shown) [H7]
- Effect of low molecular weight inhibitors on TGFβ1-dependent phosphorylation of Smad2 [1]: weaker than that of SB203580
- IC50 (GST-TβR-I [2]; [5]): 200 µM
- Effect on the kinase activity of GST-TβR-I (phosphorylation of GST-Smad3deltaMH1) (GST-TβR-I [2]; in vitro kinase assay, FIG. 2A): inhibited

Compound: COc1cccc(-c2cc(=O)c3ccccc3o2)c1N [PD98058]
- Effect on the kinase activity of GST-TβR-I (phosphorylation of GST-Smad3deltaMH1) (GST-TβR-I [2]; in vitro kinase assay, FIG. 2A): did not have an effect

Compound: Oc1ccc(-c2nc(-c3ccncc3)c(-c3ccc(F)cc3)[nH]2)cc1 [SB202190]
- IC50 (GST-TβR-I [2]; read-out: IC50 for inhibition of GST-TβR-I): 0.02 µM

Compound: CCc1[nH]c(-c2ccc(OC)cc2)nc1-c1ccncc1 [SB202474]
- IC50 (GST-TβR-I [2]; [5]): 30 µM

Compound: C[S+]([O-])c1ccc(-c2nc(-c3ccc(F)cc3)c(-c3ccncc3)[nH]2)cc1 (stereo not shown) [SB203580]
- Effect of low molecular weight inhibitors on TGFβ1-dependent phosphorylation of Smad2 [1]: significantly reduced
- inhibition at 25 µM ([1]; Mv1Lu, 0.5 h, read-out: Inhibition of TGFβ1-induced Smad2 phosphorylation): 57%

Compound: Cc1nc(-c2ccncc2)c(-c2ccccc2)o1 [SC68376]
- IC50 (p38 MAP): 2 to 5 µM
- IC50 (GST-TβR-I [2]; [5]): 5 µM

Compound: CC[C@H](CO)Nc1nc(NCc2ccccc2)c2ncn(C(C)C)c2n1 [roscovitine]
- Effect on the kinase activity of GST-TβR-I (phosphorylation of GST-Smad3deltaMH1) (GST-TβR-I [2]): did not have an effect

Compound: CN[C@@H]1C[C@H]2O[C@@](C)([C@@H]1OC)n1c3ccccc3c3c4c(c5c6ccccc6n2c5c31)C(=O)NC4 [staurosporine]
- Effect on the kinase activity of GST-TβR-I (phosphorylation of GST-Smad3deltaMH1) (GST-TβR-I [2]): did not have an effect

Compound: RQIKIWFQNRRMKWKKTQMGSPLNPISAVA (listed as Homo sapiens) [antp-Sm5A, penetratin fused to Smad5 C-terminus with serines replaced by alanine; specificity control, reference compound]
- Inhibition of autophosphorylation of TβR-I [3]: only a marginal effect
- Effect of peptides on TGFβ1-dependent phosphorylation of endogenous Smad2 ([1]; Mv1Lu cells pretreated with peptide, 15 min TGFβ1, FIG. 6A): did not have any effect
- Inhibition of autophosphorylation of GST-TβR-I (GST-TβR-I [4]): No or only weak inhibition
- Reversion of the inhibitory action of TGFβ1 on DNA synthesis (Mv1Lu cells): did not have any effect
